This experiment has as its system MX-1 breast xenograft, nude mice, tumor weight T/C. In words: NCI In Vivo Anticancer Drug Screen. Data for tumor model Human Mammary Carcinoma MX-1 Xenograft (intrarenal inoculation) in NU/NU Swiss (nude) mice. Particulars: endpoint: mean tumor weight change, higher = larger tumour. The method, boiled down: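 Antitumour effect measured in vivo against vehicle controls, expressed as T/C.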
(In general: A xenograft is tissue or cells of one species grown in another, often human tumour cells in immunodeficient mice.)

Setting [1] is: dose: 150.0 mg/kg/injection, schedule: Q04DX003 (sc), vehicle: Klucel (hydroxypropylcellulose) (HPC).
The mark [2] stands for this setting: dose: 300.0 mg/kg/injection, schedule: Q04DX003 (sc), vehicle: Klucel (hydroxypropylcellulose) (HPC).
The mark [3] stands for this setting: dose: 600.0 mg/kg/injection, schedule: Q04DX003 (sc), vehicle: Klucel (hydroxypropylcellulose) (HPC).
[4] abbreviates: dose: 1200.0 mg/kg/injection, schedule: Q04DX003 (sc), vehicle: Klucel (hydroxypropylcellulose) (HPC).
[5] abbreviates: dose: 150.0 mg/kg/injection, schedule: Q04DX003 (sc), vehicle: saline with Tween-80.
The mark [6] stands for this setting: dose: 600.0 mg/kg/injection, schedule: Q04DX003 (sc), vehicle: saline with Tween-80.
Where [7] appears, read: dose: 1200.0 mg/kg/injection, schedule: Q04DX003 (sc), vehicle: saline with Tween-80.
The mark [8] stands for this setting: dose: 75.0 mg/kg/injection, schedule: Q04DX003 (sc), vehicle: Klucel (hydroxypropylcellulose) (HPC).
The mark [9] stands for this setting: dose: 100.0 mg/kg/injection, schedule: Q01DX010 (sc), vehicle: saline with Tween-80.
The mark [10] stands for this setting: dose: 200.0 mg/kg/injection, schedule: Q01DX010 (sc), vehicle: saline with Tween-80.
The mark [11] stands for this setting: dose: 300.0 mg/kg/injection, schedule: Q04DX003 (sc), vehicle: saline.
[12] abbreviates: dose: 600.0 mg/kg/injection, schedule: Q04DX003 (sc), vehicle: saline.
Where [13] appears, read: dose: 2400.0 mg/kg/injection, schedule: Q04DX003 (sc), vehicle: saline with Tween-80.
The mark [14] stands for this setting: dose: 300.0 mg/kg/injection, schedule: Q04DX003 (sc), vehicle: saline with Tween-80.

The text below walks through data of PubChem BioAssay AID296 (DTP/NCI, 2004).

Where “and” joins values, the source holds several entries; their conditions need not be identical. Equal entries are not always repeated. Records with an inconclusive call do not appear.

For the compound `COc1cc(Cc2nccc3cc(OC)c(OC)cc23)c(C(C)=O)c(OC)c1`, the T/C reads like this: (dose: 40.0 mg/kg/injection, schedule: Q01DX010 (sc), vehicle: saline) 103 % of control; (dose: 80.0 mg/kg/injection, schedule: Q01DX010 (sc), vehicle: saline) 103 % of control; (dose: 160.0 mg/kg/injection, schedule: Q01DX010 (sc), vehicle: saline) 93 % of control.

`COC(=O)Nc1nc2ccc(SC)cc2c(=O)[nH]1`: the T/C is, setting by setting: under setting [1], 83 % of control; under setting [2], 116 % of control; under setting [3], 92 % of control; under setting [4], 86 % of control.

For the compound `O=C(Nc1nncs1)c1ccncc1`, the T/C runs as follows: under setting [5], 101 % of control; under setting [6], 109 % of control; under setting [7], 65 % of control.

With `CN(C)N=Nc1cccc(C(N)=O)c1`, the T/C runs as follows: (dose: 25.0 mg/kg/injection, schedule: Q04DX003 (sc), vehicle: Klucel (hydroxypropylcellulose) (HPC)) 100 % of control; (dose: 50.0 mg/kg/injection, schedule: Q04DX003 (sc), vehicle: Klucel (hydroxypropylcellulose) (HPC)) 52 % of control and 59 % of control and 64 % of control; under setting [1], 4 % of control.

With `NC(=O)NO`, the T/C is 44 % of control (dose: 200.0 mg/kg/injection, schedule: Q01DX010 (sc), vehicle: saline) and 49 % of control (dose: 400.0 mg/kg/injection, schedule: Q01DX010 (sc), vehicle: saline).

Regarding `COc1ccc2[nH]c3c(c2c1)CCNC3CC(C)CCC=C(C)C` (stereo unspecified), the T/C under setting [8] is 114 % of control and the T/C under setting [1] is 119 % of control.

Take `CCCCCC[Se][Se]CCCCCC`: the T/C by setting is: under setting [8], 98 % of control; under setting [1], 80 % of control; under setting [2], 102 % of control and 114 % of control.

In the case of `O=c1nc(Oc2ccccc2)nc2ncccn12`, the T/C runs as follows: (dose: 25.0 mg/kg/injection, schedule: Q01DX010 (sc), vehicle: saline with Tween-80) 100 % of control; (dose: 50.0 mg/kg/injection, schedule: Q01DX010 (sc), vehicle: saline with Tween-80) 120 % of control; under setting [9], 42 % of control; under setting [10], 46 % of control.

With `COC1CC(C)C(OC)c2cc(O)cc(c2O)NC(=O)/C(C)=C/C=C\C(C)C(OC(N)=O)/C(C)=C\C(C)C1OC` (stereo unspecified), the T/C (dose: 12.5 mg/kg/injection, schedule: Q04DX003 (sc), vehicle: saline + alcohol) was 103 % of control; the T/C (dose: 25.0 mg/kg/injection, schedule: Q04DX003 (sc), vehicle: saline + alcohol) is 104 % of control; the T/C (dose: 50.0 mg/kg/injection, schedule: Q04DX003 (sc), vehicle: saline + alcohol) was 90 % of control; the T/C (dose: 100.0 mg/kg/injection, schedule: Q04DX003 (sc), vehicle: saline + alcohol) was 109 % of control.

For `C(COCCOCC1CO1)OCCOCC1CO1` (stereo unspecified), the T/C under setting [11] is 64 % of control and the T/C under setting [12] was 29 % of control.

`NCC1CCC(C(=O)O)CC1` (stereo unspecified): the T/C was 115 % of control under setting [6], 76 % of control under setting [7] and 155 % of control under setting [13].

With `CC(=O)CC(C)=O.CC(=O)CC(C)=O.O=N[O-].O=N[O-].[Co]`, the T/C (dose: 75.0 mg/kg/injection, schedule: Q04DX003 (sc), vehicle: saline with Tween-80) was 72 % of control and the T/C under setting [5] was 67 % of control.

`Cc1cc2nc3c(=O)[nH]c(=O)nc-3n(CC(O)C(O)C(O)C(O)CO)c2cc1C` (stereo unspecified): the T/C reads like this: under setting [14], 93 % of control; under setting [6], 89 % of control; under setting [7], 89 % of control; under setting [13], 91 % of control.

Consider `COCCCNC1=C(C#N)C(=O)NC(c2cccc([N+](=O)[O-])c2)S1` (stereo unspecified), for which the T/C under setting [14] was 96 % of control, the T/C under setting [6] is 101 % of control, the T/C under setting [7] is 56 % of control and the T/C under setting [13] is 95 % of control.

In the case of `O=c1[nH]c(=O)n(C2CC(O)C(CO)O2)cc1I` (stereo unspecified), the T/C is, setting by setting: under setting [9], 55 % of control; under setting [10], 38 % of control; (dose: 400.0 mg/kg/injection, schedule: Q01DX010 (sc), vehicle: saline with Tween-80) 48 % of control.

With `OCCN1CCN(CCCN2c3ccccc3Sc3ccc(C(F)(F)F)cc32)CC1`, the T/C by setting is: (dose: 30.0 mg/kg/injection, schedule: Q04DX003 (sc), vehicle: saline) 87 % of control; (dose: 60.0 mg/kg/injection, schedule: Q04DX003 (sc), vehicle: saline) 50 % of control and 71 % of control; (dose: 480.0 mg/kg/injection, schedule: Q04DX003 (sc), vehicle: saline) 36 % of control.

Regarding `Cn1cc(C2NC(=O)c3ccccc3N2)c2ccccc21` (stereo unspecified), the T/C under setting [1] was 113 % of control and the T/C under setting [4] was 108 % of control.

As to `CN(C)c1ccc2c(N(C)C)cc(N(C)C)nc2c1`, the T/C runs as follows: (dose: 18.75 mg/kg/injection, schedule: Q04DX003 (sc), vehicle: Klucel (hydroxypropylcellulose) (HPC)) 78 % of control; (dose: 37.5 mg/kg/injection, schedule: Q04DX003 (sc), vehicle: Klucel (hydroxypropylcellulose) (HPC)) 84 % of control; under setting [8], 82 % of control.

In the case of `O=C1NC(=O)C2C3C=CC(C12)C1C2C(=O)NC(=O)C2C31` (stereo unspecified), the T/C is, setting by setting: (dose: 400.0 mg/kg/injection, schedule: Q04DX003 (sc), vehicle: saline with Tween-80) 68 % of control; (dose: 800.0 mg/kg/injection, schedule: Q04DX003 (sc), vehicle: saline with Tween-80) 57 % of control.

Take `CCCCCCCCCCCCCCCCCC(=O)OCC(=O)OCC(=O)[C@]1(O)Cc2c(O)c3c(c(O)c2[C@@H](OC2CC(N)C(O)C(C)O2)C1)C(=O)c1c(OC)cccc1C3=O` (stereo partly specified): the T/C is 48 % of control (dose: 6.0 mg/kg/injection, schedule: Q01DX010 (sc), vehicle: water) and 21 % of control (dose: 12.0 mg/kg/injection, schedule: Q01DX010 (sc), vehicle: water).

With `NC(=O)Oc1cccc(OC(N)=O)c1`, the T/C was 68 % of control (dose: 300.0 mg/kg/injection, schedule: Q04DX003 (sc), vehicle: water); 101 % of control (dose: 600.0 mg/kg/injection, schedule: Q04DX003 (sc), vehicle: water); 53 % of control (dose: 1200.0 mg/kg/injection, schedule: Q04DX003 (sc), vehicle: water).

For `O=C(O)CP(=O)(O)O`, the T/C reads like this: under setting [11], 87 % of control; under setting [12], 89 % of control; (dose: 1200.0 mg/kg/injection, schedule: Q04DX003 (sc), vehicle: saline) 83 % of control; (dose: 2400.0 mg/kg/injection, schedule: Q04DX003 (sc), vehicle: saline) 59 % of control.

As to `O=C(O)CC(NC(=O)CP(=O)(O)O)C(=O)O` (stereo unspecified), the T/C is 117 % of control (dose: 50.0 mg/kg/injection, schedule: Q01DX010 (sc), vehicle: saline); 25 % of control and 34 % of control (dose: 100.0 mg/kg/injection, schedule: Q01DX010 (sc), vehicle: saline).

For the compound `OCC1OC(n2cnc3c(NO)ncnc32)C(O)C1O` (stereo unspecified), the T/C under setting [2] is 65 % of control; the T/C under setting [3] was 70 % of control; the T/C under setting [4] was 100 % of control; the T/C (dose: 2400.0 mg/kg/injection, schedule: Q04DX003 (sc), vehicle: Klucel (hydroxypropylcellulose) (HPC)) is 82 % of control.
